In ChEMBL document CHEMBL1201862, “PubChem BioAssay data set” (2004):
Activity calls are given as the source filed them.

Key:
Fatty acid synthase [1] = molecular target: T1, Fatty acid synthase (Homo sapiens, UniProt P49327); assay: FAS thioesterase domain inhibitors, dose response, biochemical, endpoint fluorescence intensity, uHTS hits (AID 624327); format: functional;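 further: fluorescence from hydrolysis of an O-methyl fluorescein acyl ester substrate by the enzyme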
Fatty acid synthase [2] = molecular target: T1, Fatty acid synthase; assay: FAS thioesterase domain inhibitors, dose response, biochemical, kinetic fluorescence intensity (AID 624326); format: functional;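 further: rate of fluorescence rise from hydrolysis of a fluorogenic O-methyl fluorescein ester substrate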
[3] = molecular target: Glucose-6-phosphate 1-dehydrogenase (Homo sapiens, UniProt P11413); assay: human G6PD enzyme inhibitors, dose response, selectivity assay for P. falciparum G6PD inhibitor project, biochemical, fluorescence (AID 504792); format: functional
Leucine aminopeptidase = molecular target: T2, Leucine aminopeptidase (Plasmodium falciparum 3D7, UniProt Q8IL11); assay: P. falciparum M17LAP inhibitors, primary screen, biochemical, fluorogenic H-Leu-NHMec substrate, 1536-well (AID 1619); format: functional
T2 sequence (Q8IL11 whole entry): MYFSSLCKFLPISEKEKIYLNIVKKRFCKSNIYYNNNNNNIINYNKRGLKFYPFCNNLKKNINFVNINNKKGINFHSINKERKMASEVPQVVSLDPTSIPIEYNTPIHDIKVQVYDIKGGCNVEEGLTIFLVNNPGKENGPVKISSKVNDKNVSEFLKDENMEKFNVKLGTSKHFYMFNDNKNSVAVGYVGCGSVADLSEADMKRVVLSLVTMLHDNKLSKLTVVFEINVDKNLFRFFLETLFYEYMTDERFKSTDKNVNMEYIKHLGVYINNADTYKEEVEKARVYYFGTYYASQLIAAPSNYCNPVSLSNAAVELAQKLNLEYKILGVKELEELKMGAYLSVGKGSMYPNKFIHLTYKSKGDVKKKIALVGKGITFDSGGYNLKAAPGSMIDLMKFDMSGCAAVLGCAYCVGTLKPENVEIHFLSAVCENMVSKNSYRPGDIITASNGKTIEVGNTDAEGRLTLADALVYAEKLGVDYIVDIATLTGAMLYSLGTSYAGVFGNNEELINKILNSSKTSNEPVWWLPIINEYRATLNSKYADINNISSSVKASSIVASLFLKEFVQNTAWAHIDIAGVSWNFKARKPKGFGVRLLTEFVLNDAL

Cytochrome P450 2C19 = Cytochrome P450 2C19 (Homo sapiens, UniProt P33261); assay: Cytochrome panel assay with activity outcomes. Panel member name: p450-cyp2c19 Compounds with AC50 equal or less than 10 uM are considered active; format: functional; details: read-out: AC50
Cytochrome P450 3A4 = Cytochrome P450 3A4 (Homo sapiens, UniProt P08684);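 further: CYP3A4 tested as one member of a cytochrome P450 panel screen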
[4] = molecular target: Voltage-dependent T-type calcium channel subunit alpha-1H (Homo sapiens, UniProt O95180); format: functional;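 further: channel activity triggered by adding a high calcium stimulation buffer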
Voltage-dependent T-type calcium channel subunit alpha-1H, sequence (O95180 whole entry): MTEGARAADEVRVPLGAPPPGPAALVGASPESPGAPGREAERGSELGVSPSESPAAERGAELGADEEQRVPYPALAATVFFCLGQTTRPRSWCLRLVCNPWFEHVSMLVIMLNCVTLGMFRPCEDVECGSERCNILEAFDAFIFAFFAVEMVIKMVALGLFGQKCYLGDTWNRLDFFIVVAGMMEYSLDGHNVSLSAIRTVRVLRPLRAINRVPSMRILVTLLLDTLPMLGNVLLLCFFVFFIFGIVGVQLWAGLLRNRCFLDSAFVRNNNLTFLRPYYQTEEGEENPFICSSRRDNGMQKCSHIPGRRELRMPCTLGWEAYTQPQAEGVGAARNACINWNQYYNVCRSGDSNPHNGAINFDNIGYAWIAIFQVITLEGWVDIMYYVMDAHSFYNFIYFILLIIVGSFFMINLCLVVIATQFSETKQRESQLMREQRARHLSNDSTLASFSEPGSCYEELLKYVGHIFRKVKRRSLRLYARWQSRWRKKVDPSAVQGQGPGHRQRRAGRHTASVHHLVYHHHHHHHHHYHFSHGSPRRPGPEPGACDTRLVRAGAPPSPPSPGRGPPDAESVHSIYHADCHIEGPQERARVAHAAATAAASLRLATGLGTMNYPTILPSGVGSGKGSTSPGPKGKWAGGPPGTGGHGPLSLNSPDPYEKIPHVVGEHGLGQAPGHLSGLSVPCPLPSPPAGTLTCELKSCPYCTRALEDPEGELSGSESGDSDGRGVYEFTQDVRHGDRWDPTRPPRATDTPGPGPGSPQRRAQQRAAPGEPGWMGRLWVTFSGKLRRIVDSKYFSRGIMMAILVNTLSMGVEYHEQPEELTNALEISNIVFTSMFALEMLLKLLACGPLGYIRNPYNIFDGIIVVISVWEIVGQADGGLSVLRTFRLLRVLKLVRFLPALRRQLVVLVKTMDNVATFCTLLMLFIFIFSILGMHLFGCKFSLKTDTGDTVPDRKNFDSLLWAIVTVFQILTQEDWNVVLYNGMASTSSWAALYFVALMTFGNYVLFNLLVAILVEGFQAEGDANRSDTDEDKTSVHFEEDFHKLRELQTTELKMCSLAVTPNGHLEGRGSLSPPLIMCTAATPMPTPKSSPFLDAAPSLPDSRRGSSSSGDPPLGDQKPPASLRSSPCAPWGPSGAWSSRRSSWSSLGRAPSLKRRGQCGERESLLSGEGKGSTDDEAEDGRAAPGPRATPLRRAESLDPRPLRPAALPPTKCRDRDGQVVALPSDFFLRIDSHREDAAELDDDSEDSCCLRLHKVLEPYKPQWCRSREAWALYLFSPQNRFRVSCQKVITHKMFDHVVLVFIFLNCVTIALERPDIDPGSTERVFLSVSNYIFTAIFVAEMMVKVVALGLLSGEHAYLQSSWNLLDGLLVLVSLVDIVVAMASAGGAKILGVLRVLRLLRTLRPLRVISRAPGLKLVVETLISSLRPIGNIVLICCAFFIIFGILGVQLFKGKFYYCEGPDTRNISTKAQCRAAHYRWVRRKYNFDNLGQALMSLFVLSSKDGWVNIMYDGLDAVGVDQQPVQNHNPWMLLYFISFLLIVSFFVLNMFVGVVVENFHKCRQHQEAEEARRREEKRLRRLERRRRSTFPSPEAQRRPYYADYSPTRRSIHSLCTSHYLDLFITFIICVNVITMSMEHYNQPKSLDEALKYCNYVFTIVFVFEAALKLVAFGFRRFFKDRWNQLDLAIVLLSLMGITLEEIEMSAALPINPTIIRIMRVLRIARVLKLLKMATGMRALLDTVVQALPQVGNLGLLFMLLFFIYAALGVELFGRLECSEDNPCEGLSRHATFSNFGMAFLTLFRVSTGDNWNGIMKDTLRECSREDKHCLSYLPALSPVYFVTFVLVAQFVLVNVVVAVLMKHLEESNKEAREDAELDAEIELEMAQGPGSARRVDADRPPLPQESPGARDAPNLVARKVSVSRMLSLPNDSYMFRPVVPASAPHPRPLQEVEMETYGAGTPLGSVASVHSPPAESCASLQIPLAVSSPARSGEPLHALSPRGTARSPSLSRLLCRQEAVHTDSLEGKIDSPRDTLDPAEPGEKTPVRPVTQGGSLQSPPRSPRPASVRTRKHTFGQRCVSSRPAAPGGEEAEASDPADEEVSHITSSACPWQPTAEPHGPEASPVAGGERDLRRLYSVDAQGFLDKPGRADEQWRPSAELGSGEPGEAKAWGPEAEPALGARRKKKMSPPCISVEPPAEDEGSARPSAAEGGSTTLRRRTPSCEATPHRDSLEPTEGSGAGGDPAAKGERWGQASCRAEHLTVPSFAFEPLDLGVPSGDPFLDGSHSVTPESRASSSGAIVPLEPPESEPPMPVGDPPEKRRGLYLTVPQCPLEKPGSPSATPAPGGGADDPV

Large T antigen = Large T antigen (Simian virus 40, UniProt P03070); format: functional, Betapolyomavirus macacae;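 further: Confirmatory-stage PubChem screen for compounds that inhibit SV40 T antigen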
Vero = assay: cells; format: functional; details: Chlorocebus sabaeus
[5] = molecular target: T3, Rac GTPase-activating protein 1 (Homo sapiens, UniProt Q9H0H5); assay: MgcRacGAP GTPase-activating activity inhibitors, confirmation, biochemical, ADP Hunter fluorescence, primary and confirmatory (AID 624330); format: functional
T3 sequence (Q9H0H5 whole entry): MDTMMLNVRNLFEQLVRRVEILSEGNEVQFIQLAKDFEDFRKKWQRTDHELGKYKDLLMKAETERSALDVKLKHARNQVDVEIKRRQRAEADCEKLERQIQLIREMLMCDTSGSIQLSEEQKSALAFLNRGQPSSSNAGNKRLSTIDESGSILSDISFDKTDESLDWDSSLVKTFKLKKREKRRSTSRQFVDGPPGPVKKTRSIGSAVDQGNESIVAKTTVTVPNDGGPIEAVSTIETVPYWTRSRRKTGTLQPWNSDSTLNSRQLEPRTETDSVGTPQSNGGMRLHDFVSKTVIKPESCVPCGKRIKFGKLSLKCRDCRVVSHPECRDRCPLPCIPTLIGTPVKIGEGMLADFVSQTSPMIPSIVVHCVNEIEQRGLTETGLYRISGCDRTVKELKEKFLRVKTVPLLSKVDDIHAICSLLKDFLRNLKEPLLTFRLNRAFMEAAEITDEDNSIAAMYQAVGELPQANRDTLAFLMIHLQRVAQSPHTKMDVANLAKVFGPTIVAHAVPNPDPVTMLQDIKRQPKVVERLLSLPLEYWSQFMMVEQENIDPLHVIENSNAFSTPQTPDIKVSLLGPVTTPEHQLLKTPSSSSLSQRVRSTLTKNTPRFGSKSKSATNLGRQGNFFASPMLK

[6] = Shn3 3'UTR reporter inhibitors, dose response, cell-based, Clone20 osteoblasts, firefly luciferase, cherry-picked (AID 624132); format: functional;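 further: firefly luciferase luminescence from reporter carrying the Shn3 3'UTR in osteoblasts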
[7] = inhibitors of HIV Env-driven cell fusion, dose response, cherry-pick (AID 652057); format: functional, cell-based
[8] = ZM109 Env clade C HIV-1 fusion inhibitors, dose response, HeLa effector, CEM target cells, luciferase, cherry-pick (AID 652058); format: functional, cell-based
[9] = off-target signal loss in HeLa-CEM21 co-culture – HeLa F-luc CTL cells, cherry-picked, counter-screen for HIV-1 Env fusion inhibitor project, dose response (AID 652040); format: functional, cell-based;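 further: potency for signal decrease marking cytotoxic or nonspecific inhibition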
[10] = inhibitors of clade B AD8 Env fusion, dose response, cell-based, cherry-pick (AID 652062); format: functional;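 further: luciferase signal from cell-cell fusion driven by HIV-1 clade B AD8 Env; potency is for inhibitors of fusion seen as a drop in luminescence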

T1 sequence (P49327 whole entry, the tested form may be a part): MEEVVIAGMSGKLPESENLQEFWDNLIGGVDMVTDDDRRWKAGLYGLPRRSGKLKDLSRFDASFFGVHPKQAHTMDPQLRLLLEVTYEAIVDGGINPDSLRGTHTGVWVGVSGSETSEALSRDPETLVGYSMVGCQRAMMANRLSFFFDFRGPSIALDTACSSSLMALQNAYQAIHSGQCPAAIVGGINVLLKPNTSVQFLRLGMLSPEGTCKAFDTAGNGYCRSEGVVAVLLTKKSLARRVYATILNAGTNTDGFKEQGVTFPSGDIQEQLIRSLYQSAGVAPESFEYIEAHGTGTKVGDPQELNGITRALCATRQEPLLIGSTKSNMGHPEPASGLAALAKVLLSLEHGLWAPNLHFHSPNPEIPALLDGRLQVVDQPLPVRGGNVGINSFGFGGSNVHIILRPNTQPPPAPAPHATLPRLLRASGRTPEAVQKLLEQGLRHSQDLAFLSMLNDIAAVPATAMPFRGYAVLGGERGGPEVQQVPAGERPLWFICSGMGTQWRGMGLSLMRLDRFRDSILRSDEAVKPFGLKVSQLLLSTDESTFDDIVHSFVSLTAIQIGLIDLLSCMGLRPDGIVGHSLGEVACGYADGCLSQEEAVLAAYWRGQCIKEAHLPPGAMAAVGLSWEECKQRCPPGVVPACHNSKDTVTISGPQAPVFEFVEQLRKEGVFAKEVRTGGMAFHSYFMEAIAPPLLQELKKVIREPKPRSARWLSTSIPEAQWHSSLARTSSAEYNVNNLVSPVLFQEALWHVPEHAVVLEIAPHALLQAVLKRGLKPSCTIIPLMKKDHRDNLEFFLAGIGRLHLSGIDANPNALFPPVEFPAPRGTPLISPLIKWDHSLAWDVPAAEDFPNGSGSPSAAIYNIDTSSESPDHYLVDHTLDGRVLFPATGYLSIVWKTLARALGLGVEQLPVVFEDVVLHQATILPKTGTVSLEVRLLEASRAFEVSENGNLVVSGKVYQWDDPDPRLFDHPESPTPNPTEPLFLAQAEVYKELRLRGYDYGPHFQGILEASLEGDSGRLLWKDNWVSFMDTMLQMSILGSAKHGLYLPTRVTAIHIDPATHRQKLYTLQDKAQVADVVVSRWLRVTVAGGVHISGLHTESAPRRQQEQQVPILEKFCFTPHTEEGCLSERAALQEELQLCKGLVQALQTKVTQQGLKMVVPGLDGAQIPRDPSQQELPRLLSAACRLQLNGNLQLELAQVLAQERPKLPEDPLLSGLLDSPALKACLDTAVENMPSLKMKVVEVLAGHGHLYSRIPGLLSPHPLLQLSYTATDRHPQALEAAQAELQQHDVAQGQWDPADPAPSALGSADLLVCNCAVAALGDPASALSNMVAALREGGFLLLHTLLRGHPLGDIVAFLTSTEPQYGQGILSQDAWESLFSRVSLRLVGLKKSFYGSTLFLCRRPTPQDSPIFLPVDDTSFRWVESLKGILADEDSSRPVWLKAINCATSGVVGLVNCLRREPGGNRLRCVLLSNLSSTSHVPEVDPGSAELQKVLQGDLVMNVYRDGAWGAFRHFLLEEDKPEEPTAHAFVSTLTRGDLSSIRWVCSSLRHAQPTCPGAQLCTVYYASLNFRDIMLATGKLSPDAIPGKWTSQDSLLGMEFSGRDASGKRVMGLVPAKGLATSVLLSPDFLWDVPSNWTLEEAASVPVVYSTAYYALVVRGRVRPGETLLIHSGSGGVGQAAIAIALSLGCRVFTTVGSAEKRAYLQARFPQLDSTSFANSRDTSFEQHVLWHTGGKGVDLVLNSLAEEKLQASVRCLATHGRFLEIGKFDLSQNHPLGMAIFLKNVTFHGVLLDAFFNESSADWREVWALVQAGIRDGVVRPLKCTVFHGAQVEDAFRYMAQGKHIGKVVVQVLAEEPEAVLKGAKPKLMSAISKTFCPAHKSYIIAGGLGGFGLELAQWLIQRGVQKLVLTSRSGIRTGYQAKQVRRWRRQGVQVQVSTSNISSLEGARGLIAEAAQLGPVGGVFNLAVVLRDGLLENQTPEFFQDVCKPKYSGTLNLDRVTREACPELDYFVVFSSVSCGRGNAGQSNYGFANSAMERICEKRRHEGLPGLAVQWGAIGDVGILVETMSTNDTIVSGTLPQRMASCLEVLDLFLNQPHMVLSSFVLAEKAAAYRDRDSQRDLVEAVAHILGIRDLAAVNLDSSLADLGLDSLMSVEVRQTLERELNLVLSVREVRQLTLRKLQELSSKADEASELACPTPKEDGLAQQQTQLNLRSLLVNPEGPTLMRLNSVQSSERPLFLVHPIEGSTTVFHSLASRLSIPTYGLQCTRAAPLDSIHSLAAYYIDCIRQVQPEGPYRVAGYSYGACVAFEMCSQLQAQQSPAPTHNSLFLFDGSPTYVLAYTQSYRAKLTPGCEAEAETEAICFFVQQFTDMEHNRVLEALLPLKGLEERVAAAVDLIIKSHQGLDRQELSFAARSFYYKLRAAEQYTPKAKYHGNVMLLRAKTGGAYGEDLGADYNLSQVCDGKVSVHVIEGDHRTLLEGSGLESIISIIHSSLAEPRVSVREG

In the case of `CCc1ccc(C(=O)COC(=O)c2cc([N+](=O)[O-])ccc2NCCO)cc1`, the IC50 (Fatty acid synthase [1]) is reported as 1.87 µM (active) and the IC50 (Fatty acid synthase [2]) is reported as 3.82 µM (active).

For `COc1ccc(CNC(=O)Cc2cn(C)c3ccccc23)c(OC)c1`, the IC50 [3] was > 80 µM (inactive).

For `Cc1ccc(NC(=O)CN(C)C(=O)CSc2n[nH]c(N)n2)cc1`, the IC50 (Leucine aminopeptidase) was 44.7 µM (active), the AC50 (Cytochrome P450 2C19) was 35.5 nM (inconclusive) and the AC50 (Cytochrome P450 3A4) was 31.6 µM (inconclusive).

In the case of `COC(=O)c1cccc(NC(=O)Cn2cnc3ccccc3c2=O)c1`, the IC50 (Leucine aminopeptidase) is reported as 43.5 µM (active).

For `CCOC(=O)Cc1cc(O)n2nc(C(C)(C)C)cc2n1`, the IC50 [3] was > 80 µM (inactive).

For `O=C(c1ccc(Cl)c(Cl)c1)N1CCC(=O)N(C(COCc2ccccc2)Cc2ccccc2)CC1` (stereo not given), the EC50 [4] was 2.88 µM (active).

In the case of `Cc1ccsc1/C=C1/C(=O)NN(c2ccccc2)C1=O`, the IC50 (Large T antigen) is reported as 28.1 µM (active).

With `Cc1cc(NC(=O)/C=C/C(=O)N(c2ccccc2C)C(C(=O)NC2CCCC2)c2ccc(F)cc2)no1` (stereo not given) the CC50 (Vero) was 12.1 µM (active).

With `O=C(c1cc2sccc2n1Cc1ccc(F)cc1)N1CCCc2ccccc21` the EC50 [4] was 4.88 µM (active).

With `N#CC1CCN(C(=O)c2ccc3c(Cl)c4c(nc3c2)CCCC4)CC1` the IC50 (Fatty acid synthase [1]) was 2.16 µM (active) and the IC50 (Fatty acid synthase [2]) was 1.89 µM (active).

In the case of `CCCCN(Cc1ccccc1)S(=O)(=O)c1cc(Br)cc2c1N(C(C)=O)C(C)C2` (stereo not given), the EC50 [4] is reported as 18.2 µM (active).

For `C/C(=N/Nc1ccc(C(=O)O)cc1)c1ccc2c(c1)Nc1ccccc1S2`, the IC50 (Fatty acid synthase [1]) was 13.2 µM (active), the IC50 [5] was 50.6 µM (active) and the IC50 (Fatty acid synthase [2]) was 11.1 µM (active).

With `CCN(CC)S(=O)(=O)c1ccc(N2CCOCC2)c(NC(=O)c2nn(C(C)C)c(=O)c3ccccc23)c1` the AC50 [6] was 15.6 µM (active).

In the case of `CCOC1=C2[C@@H](CN(S(=O)(=O)c3ccccc3C)[C@H]2c2ccc(Cl)cc2)[C@H]2C(=O)NC(=O)[C@H]2C1`, the AC50 [7] is reported as 3.71 µM (active), the AC50 [8] is reported as 3.92 µM (active) and the AC50 [9] is reported as 7.02 µM (active). For the same compound, the AC50 [10] was 19.5 µM (active).

With `O=C(CCC(=O)Nc1ccccc1Cl)N/N=C/c1ccccc1` the IC50 [3] was 31.6 µM (inactive).

For `N=C(N)N/N=C/c1ccc(Cl)c(Cl)c1`, the CC50 (Vero) was 21.4 µM (active).
